Results taken from ChEMBL document CHEMBL1201862, “PubChem BioAssay data set” (2004).
Active and inactive are the calls of the source.

What was measured:
[1] = target: T1, Histone-lysine N-methyltransferase NSD2 (Homo sapiens, UniProt O96028); type: biochemical
T1 sequence (O96028 whole entry): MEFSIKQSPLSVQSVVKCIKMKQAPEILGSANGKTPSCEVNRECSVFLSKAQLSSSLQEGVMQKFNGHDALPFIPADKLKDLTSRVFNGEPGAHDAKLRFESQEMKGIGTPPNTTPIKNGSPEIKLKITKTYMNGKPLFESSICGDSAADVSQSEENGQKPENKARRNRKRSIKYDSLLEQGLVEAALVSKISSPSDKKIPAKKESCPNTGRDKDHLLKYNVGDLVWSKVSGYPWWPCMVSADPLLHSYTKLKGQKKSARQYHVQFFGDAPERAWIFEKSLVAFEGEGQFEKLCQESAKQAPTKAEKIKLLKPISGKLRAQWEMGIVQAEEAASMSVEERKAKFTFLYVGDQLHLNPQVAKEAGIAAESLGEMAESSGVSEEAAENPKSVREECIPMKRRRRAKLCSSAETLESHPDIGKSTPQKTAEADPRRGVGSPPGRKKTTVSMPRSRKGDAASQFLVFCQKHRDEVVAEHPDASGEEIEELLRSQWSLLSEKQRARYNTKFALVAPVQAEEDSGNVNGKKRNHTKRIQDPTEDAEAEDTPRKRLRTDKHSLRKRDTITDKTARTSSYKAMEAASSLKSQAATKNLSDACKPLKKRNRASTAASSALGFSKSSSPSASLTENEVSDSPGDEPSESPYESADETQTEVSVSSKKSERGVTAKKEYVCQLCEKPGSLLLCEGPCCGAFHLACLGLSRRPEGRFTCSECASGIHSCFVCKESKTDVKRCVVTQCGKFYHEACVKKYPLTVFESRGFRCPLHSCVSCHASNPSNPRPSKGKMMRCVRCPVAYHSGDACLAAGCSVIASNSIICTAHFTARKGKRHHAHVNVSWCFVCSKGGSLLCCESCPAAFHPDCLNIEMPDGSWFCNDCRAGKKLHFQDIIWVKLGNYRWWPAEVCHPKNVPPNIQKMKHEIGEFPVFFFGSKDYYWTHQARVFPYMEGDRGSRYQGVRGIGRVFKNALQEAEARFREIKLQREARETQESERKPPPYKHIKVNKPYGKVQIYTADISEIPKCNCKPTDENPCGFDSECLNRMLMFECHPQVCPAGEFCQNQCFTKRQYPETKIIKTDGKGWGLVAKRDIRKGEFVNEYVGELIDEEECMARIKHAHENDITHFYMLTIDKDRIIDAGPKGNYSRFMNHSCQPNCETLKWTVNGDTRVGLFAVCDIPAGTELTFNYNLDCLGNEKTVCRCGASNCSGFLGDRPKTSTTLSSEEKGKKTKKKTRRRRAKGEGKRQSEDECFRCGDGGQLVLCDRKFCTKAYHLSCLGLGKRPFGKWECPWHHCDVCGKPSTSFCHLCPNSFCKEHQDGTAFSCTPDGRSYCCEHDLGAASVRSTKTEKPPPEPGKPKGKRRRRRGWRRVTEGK

[2] = target: BDNF/NT-3 growth factors receptor (Homo sapiens, UniProt Q16620); type: functional;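 also: NTRK2 measured as one member of a broad kinome-wide kinase profiling panel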
[3] = target: Hepatocyte growth factor receptor (Homo sapiens, UniProt P08581); type: functional;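 also: kinase panel profiling across the kinome, with MET as the panel member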
Hepatocyte growth factor receptor, sequence (P08581 whole entry): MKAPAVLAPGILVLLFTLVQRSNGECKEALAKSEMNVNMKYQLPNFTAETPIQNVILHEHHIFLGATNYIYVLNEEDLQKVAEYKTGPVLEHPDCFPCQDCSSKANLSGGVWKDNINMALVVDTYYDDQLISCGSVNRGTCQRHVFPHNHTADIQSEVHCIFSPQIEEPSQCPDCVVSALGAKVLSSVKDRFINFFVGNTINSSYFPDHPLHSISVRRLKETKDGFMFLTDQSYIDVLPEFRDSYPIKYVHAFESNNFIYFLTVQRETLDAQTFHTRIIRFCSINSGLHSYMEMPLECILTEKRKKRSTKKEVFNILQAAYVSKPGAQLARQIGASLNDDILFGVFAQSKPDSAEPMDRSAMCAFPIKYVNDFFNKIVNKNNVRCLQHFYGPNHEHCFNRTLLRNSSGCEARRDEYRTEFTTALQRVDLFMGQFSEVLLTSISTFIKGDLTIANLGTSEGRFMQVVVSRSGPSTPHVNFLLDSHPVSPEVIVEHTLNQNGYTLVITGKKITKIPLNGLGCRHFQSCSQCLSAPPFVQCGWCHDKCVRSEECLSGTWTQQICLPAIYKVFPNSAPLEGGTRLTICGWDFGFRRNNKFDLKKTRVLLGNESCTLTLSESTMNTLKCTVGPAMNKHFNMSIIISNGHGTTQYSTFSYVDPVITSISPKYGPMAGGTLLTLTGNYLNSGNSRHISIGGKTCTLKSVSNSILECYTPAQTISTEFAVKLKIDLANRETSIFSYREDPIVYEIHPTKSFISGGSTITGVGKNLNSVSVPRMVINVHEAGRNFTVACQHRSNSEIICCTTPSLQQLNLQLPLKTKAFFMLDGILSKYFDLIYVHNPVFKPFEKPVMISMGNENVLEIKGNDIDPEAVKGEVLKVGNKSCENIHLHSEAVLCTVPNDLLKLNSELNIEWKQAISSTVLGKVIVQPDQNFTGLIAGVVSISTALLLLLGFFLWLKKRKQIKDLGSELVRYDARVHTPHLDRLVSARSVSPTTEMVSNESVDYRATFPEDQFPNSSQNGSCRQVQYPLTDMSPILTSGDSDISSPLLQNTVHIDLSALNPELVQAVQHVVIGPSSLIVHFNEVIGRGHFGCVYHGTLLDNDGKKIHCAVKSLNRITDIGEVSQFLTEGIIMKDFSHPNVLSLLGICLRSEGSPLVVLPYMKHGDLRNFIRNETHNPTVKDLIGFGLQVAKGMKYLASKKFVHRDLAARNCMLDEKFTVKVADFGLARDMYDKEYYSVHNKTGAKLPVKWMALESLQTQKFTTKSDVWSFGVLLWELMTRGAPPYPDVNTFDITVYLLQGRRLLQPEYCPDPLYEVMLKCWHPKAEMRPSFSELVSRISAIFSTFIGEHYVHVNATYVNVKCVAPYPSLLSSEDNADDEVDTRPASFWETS

[4] = target: Calcium/calmodulin-dependent protein kinase type II subunit beta (Homo sapiens, UniProt Q13554); type: functional
[5] = target: Testis-specific serine/threonine-protein kinase 1 (Homo sapiens, UniProt Q9BXA7); type: functional
[6] = target: Tyrosine-protein kinase Blk (Homo sapiens, UniProt P51451); type: functional;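 also: obtained as one member of a kinome-wide kinase assay panel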
[7] = target: Tyrosine-protein kinase ITK/TSK (Homo sapiens, UniProt Q08881); type: functional;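 also: affinity for ITK measured as one member of a broad kinase panel profiling binding across the kinome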
Tyrosine-protein kinase ITK/TSK, sequence (Q08881 whole entry): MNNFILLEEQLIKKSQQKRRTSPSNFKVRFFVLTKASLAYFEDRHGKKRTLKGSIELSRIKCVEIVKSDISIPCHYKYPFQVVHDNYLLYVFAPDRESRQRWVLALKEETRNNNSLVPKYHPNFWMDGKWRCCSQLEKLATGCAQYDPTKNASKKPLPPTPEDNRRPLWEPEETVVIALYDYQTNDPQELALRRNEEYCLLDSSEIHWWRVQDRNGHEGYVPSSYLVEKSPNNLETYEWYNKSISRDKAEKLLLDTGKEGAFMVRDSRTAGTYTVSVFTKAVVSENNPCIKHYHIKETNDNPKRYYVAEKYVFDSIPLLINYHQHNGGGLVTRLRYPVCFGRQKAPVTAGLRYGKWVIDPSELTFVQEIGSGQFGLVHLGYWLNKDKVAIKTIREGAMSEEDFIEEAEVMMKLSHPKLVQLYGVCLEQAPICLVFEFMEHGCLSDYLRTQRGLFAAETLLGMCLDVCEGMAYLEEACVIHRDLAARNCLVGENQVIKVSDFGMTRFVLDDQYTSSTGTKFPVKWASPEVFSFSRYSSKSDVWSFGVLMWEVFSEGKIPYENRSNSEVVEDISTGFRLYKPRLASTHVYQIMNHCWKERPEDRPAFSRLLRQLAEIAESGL

[8] = target: Vascular endothelial growth factor receptor 1 (Homo sapiens, UniProt P17948); type: functional;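 also: measured within a kinome-wide profiling panel, FLT1 as the panel member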
Vascular endothelial growth factor receptor 1, sequence (P17948 whole entry): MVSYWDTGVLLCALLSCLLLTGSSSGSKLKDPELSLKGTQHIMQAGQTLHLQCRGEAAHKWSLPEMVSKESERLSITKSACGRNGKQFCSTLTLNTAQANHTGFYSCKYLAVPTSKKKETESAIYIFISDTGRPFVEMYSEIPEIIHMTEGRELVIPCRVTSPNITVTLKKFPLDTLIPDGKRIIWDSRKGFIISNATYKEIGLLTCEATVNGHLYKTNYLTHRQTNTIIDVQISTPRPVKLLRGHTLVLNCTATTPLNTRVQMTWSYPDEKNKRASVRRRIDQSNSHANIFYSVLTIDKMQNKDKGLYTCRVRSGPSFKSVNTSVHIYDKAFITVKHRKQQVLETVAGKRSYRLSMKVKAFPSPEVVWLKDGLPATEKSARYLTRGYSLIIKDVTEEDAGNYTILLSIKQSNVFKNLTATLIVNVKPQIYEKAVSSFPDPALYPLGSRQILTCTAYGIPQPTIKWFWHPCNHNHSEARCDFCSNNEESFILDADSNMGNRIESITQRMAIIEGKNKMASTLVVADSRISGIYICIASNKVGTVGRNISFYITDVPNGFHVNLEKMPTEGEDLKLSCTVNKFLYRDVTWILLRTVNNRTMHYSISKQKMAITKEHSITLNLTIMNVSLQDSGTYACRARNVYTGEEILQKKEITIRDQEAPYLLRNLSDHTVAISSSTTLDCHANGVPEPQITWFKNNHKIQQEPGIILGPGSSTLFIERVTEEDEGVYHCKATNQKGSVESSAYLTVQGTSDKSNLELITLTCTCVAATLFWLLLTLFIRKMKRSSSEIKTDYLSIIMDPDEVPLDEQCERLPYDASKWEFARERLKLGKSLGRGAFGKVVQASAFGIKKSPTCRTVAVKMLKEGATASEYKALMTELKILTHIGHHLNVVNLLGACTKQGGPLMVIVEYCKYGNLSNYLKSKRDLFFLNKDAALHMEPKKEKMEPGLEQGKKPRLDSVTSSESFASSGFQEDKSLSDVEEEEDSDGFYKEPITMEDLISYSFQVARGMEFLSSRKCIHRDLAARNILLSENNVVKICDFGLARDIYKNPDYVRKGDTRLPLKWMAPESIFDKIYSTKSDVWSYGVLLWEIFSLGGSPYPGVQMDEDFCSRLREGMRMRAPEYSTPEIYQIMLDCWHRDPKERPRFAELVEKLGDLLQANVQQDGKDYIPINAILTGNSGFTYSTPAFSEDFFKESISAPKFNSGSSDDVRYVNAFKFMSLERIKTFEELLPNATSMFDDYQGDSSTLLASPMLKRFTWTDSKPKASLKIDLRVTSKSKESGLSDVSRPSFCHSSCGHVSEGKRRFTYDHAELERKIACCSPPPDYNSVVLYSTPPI

[9] = target: Serine/threonine-protein kinase DCLK1 (Homo sapiens, UniProt O15075); type: functional;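 also: affinity for DCLK1 (listed as DCAMKL1) measured as one member of a kinome-wide kinase profiling panel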
[10] = target: MAP kinase-activated protein kinase 2 (Homo sapiens, UniProt P49137); type: functional;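 also: measured as one member of a kinome-wide kinase panel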
[11] = target: MAP kinase-activated protein kinase 3 (Homo sapiens, UniProt Q16644); type: functional;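 also: value comes from a kinome-wide profiling panel in which MAPKAPK3 is one of the panel members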
SRSF protein kinase 1 = SRSF protein kinase 1 (Homo sapiens, UniProt Q96SB4); type: functional;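 also: measured as one member of a kinome-wide kinase profiling panel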
SRSF protein kinase 1, sequence (Q96SB4 whole entry): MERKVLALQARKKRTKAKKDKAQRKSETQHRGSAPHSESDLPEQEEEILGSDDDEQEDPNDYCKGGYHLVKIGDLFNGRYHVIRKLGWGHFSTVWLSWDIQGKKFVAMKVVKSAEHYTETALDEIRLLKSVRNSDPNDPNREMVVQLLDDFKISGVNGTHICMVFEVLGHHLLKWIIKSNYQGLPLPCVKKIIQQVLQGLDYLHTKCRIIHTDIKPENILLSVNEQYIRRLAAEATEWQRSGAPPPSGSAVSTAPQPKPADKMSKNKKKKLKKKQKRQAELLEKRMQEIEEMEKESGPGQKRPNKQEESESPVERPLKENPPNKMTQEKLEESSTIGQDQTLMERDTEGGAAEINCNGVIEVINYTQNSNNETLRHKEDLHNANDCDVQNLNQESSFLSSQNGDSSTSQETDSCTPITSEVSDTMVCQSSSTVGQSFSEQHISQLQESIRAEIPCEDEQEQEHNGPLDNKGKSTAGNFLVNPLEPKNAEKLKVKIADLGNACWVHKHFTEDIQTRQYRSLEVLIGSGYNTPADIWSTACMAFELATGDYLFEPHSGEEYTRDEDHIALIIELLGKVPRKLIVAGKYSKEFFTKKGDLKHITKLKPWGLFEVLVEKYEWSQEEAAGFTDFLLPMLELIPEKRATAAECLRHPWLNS

[12] = target: Tyrosine-protein kinase Srms (Homo sapiens, UniProt Q9H3Y6); type: functional;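 also: SRMS measured as one member of a kinome-wide kinase profiling panel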
[13] = target: Macrophage-stimulating protein receptor (Homo sapiens, UniProt Q04912); assay: Navigating the Kinome. Panel member name: MST1R; type: functional
[14] = target: cAMP-dependent protein kinase catalytic subunit PRKX (Homo sapiens, UniProt P51817); type: functional
[15] = target: Proto-oncogene tyrosine-protein kinase Src (Homo sapiens, UniProt P12931); type: functional;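 also: SRC entry within a kinome-wide kinase profiling panel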
Proto-oncogene tyrosine-protein kinase Src, sequence (P12931 2-536 limits assumed): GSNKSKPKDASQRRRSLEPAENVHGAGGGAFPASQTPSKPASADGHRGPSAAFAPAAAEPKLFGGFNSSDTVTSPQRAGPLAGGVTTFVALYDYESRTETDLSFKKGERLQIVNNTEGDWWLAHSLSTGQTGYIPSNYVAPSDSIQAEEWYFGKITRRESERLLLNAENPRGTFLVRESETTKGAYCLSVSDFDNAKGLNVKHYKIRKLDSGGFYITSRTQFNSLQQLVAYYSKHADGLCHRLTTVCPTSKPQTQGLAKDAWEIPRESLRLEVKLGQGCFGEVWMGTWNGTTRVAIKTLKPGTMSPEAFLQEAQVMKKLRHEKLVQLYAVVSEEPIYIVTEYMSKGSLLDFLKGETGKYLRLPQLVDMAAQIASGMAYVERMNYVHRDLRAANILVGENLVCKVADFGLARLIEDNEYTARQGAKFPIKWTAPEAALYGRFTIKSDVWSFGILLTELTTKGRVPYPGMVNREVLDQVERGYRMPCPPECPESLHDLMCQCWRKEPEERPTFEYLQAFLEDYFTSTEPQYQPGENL

[16] = target: Calcium/calmodulin-dependent protein kinase type II subunit gamma (Homo sapiens, UniProt Q13555); type: functional
[17] = target: STE20-like serine/threonine-protein kinase (Homo sapiens, UniProt Q9H2G2); type: functional
[18] = target: Maternal embryonic leucine zipper kinase (Homo sapiens, UniProt Q14680); type: functional
[19] = target: Glycogen synthase kinase-3 alpha (Homo sapiens, UniProt P49840); type: functional;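 also: GSK3A result taken from a broad kinome-wide kinase panel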
Glycogen synthase kinase-3 alpha, sequence (P49840 whole entry): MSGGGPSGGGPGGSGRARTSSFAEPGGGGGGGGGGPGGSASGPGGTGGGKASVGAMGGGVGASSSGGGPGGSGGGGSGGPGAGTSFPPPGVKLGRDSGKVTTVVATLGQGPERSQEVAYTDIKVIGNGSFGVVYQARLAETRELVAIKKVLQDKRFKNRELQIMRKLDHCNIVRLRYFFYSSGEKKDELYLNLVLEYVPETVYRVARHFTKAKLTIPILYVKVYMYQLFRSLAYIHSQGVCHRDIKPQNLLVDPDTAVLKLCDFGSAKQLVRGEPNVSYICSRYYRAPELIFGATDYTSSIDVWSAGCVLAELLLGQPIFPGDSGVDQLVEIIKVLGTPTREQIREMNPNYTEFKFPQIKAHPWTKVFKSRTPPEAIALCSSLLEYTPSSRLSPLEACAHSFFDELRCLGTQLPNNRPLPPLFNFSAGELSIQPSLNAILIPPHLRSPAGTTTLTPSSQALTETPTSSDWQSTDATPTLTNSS

SMILES	AC50 [1]	Ki [2]	Ki [3]	Ki [4]	Ki [5]	Ki [6]	Ki [7]	Ki [8]	Ki [9]	Ki [10]	Ki [11]	Ki (SRSF protein kinase 1)	Ki [12]	Ki [13]	Ki [14]	Ki [15]	Ki [16]	Ki [17]	Ki [18]	Ki [19]
CCOC(=O)c1c2c(n(Cc3ccccc3)c1C)C(=O)C(=O)c1ccccc1-2	263 nM (active)																			
Cc1ccc2nccc(NC(=O)Nc3cccc(C(F)(F)F)n3)c2c1		> 5010 nM (inactive)	> 3160 nM (inactive)	> 7940 nM (inactive)	> 1580 nM (inactive)	> 1580 nM (inactive)	> 1580 nM (inactive)	> 2000 nM (inactive)	> 10000 nM (inactive)	> 7940 nM (inactive)	> 10000 nM (inactive)	> 7940 nM (inactive)	> 1580 nM (inactive)	2510 nM (active)	> 2510 nM (inactive)	> 2000 nM (inactive)	> 6310 nM (inactive)	> 10000 nM (inactive)	> 1580 nM (inactive)	
Cc1nn(C)c2sc3c(=O)[nH]cnc3c12			> 31600 nM (inactive)																	50100 nM (active)
Cc1c(/N=C2\C=CC(=O)c3ccccc32)c(=O)n(-c2ccccc2)n1C	2430 nM (active)																			
COc1cc2c(cc1F)C(c1ccccc1Cl)=Nc1c(n[nH]c1C)N2 [RG-1530]		100 nM (active)		> 7940 nM (inactive)	> 1580 nM (inactive)	63.1 nM (active)	126 nM (active)	50.1 nM (active)	> 10000 nM (inactive)	> 7940 nM (inactive)	> 10000 nM (inactive)	3160 nM (active)	> 1580 nM (inactive)	39.8 nM (active)	> 1580 nM (inactive)	126 nM (active)	> 6310 nM (inactive)	39.8 nM (active)	1260 nM (active)	50.1 nM (active)
